SMILES strings stand for the structures. Calls of active or inactive are those of the source. How the calls were made is not given here.

One may read the Kd as a measure of binding affinity in units of concentration.

Chain of Ubiquitin-conjugating enzyme E2 N (Homo sapiens) (P61088 whole entry, looked up): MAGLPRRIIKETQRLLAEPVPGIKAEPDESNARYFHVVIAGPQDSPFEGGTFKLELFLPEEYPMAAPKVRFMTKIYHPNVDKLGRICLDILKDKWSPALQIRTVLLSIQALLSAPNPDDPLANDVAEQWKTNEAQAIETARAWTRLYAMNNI

This test concerns the target Ubiquitin-conjugating enzyme E2 N (Homo sapiens) (UniProt P61088). The experiment in a line: NMR detection of UBE2N ligand binding – biophysical, purified protein (AID 1552). As to conditions: NMR binding to purified UBE2N.
`O=[N+]([O-])c1ccc2c(c1)N([O-])C1(CCCCC1)[N+]2=O`: the Kd is > 4 mM (inactive). As for `Cc1n[nH]c(=O)c2ncn(C)c12`, the figure is > 4 mM (inactive). The figure for `CC1=CC(=O)NC2C=CC=CC12` (stereo unspecified) is > 4 mM (inactive); for `CC1=C(C(N)=O)C(c2ccco2)C(C(N)=O)=C(C)N1` it is > 4 mM (inactive).

Consider `C=C(C)[C@@H]1CC[C@]2(CO)CC[C@]3(C)[C@H](CCC4[C@@]5(C)CC[C@H](O)C(C)(C)C5CC[C@]43C)C12` (stereo partly specified), for which the Kd was > 4 mM (inactive).

Regarding `O=C1CSC(=NC(=O)c2ccccc2)N1`, the Kd was > 4 mM (inactive). Consider `C[C@@H](N)[C@@H](O)c1ccccc1`, for which the Kd is > 4 mM (inactive).

As to `CC1=NN2C(=N)/C(=C\c3cccs3)C(=O)N=C2S1`, the Kd is > 4 mM (inactive). The figure for `Cc1nc2ccc(C(=O)O)cc2nc1C` is > 4 mM (inactive); for `O=C(O)C1CC(=O)N(CCc2ccc(Cl)cc2)C1` (stereo unspecified) it is > 4 mM (inactive). `O=C(Nc1ccccc1N1CCCC1)c1cccnc1`: the Kd is > 4 mM (inactive). Turning to `CC1(O)CC2C(CC1O)C2(C)C` (stereo unspecified), the Kd was > 4 mM (inactive).

For the compound `CC(C)=CC1C(CO)C1(C)C` (stereo unspecified), the Kd is > 4 mM (inactive). The figure for `CSc1ncnc2nc[nH]c12` is > 4 mM (inactive). As to `C[C@@H]1CCC2[C@](C)(CO)[C@@H](O)CC[C@]2(C)[C@@]12CC[C@@](CO)(CCO)O2` (stereo partly specified), the Kd is > 4 mM (inactive).

For `O=C(O)c1scc2c1CCCC2`, the Kd is > 4 mM (inactive). As for `CCc1ccc2oc(-c3cc(N)cc(C)c3O)nc2c1`, the figure is > 4 mM (inactive); as for `COc1ccc(C2NC(C(=O)O)CS2)cc1` (stereo unspecified), > 4 mM (inactive); as for `O=c1ccc2ccc(O)cc2o1`, > 4 mM (inactive). As for `NC(=O)CN1C(=O)c2cccc3cccc1c23`, the figure is > 4 mM (inactive); as for `Cc1ccccc1NC(=O)C1CC(=O)N=C(N)S1` (stereo unspecified), > 4 mM (inactive).

Turning to `O=C1CCCC(=O)N1c1ccc(O)cc1`, the Kd was > 4 mM (inactive). As for `CC(=O)O[C@H]1CC[C@]2(C)C3CC[C@@]4(C)C(CC5O[C@@]6(CCC(C)CO6)[C@@H](C)C54)C3CC[C@@H]2C1` (stereo partly specified), the figure is > 4 mM (inactive); as for `CC(=O)Nc1c(C#N)c(C(C)(C)C)cn1C`, > 4 mM (inactive); as for `CCC(C)C(=O)O[C@@H]1C[C@@]2(C)[C@H](c3ccoc3)OC(=O)CC23OC2(C)OC34[C@H](OC(=O)C(C)C)[C@@]3(O)[C@@H](OC(=O)C5(C)OC5C)[C@@]5(C)C[C@]3(O)[C@@](C)([C@H]5CC(=O)OC)C14O2` (stereo partly specified), > 4 mM (inactive). On to `S=C(Nc1ccccc1)Nc1nncs1`, for which the Kd was > 4 mM (inactive).

In the case of `O=C1C=C(Nc2ccccc2O)c2ccccc2C1=O`, the Kd is > 4 mM (inactive). The figure for `O=[n+]1c(CO)c(CO)n([O-])c2ccccc21` is > 4 mM (inactive); for `OC1CNCc2cc3c(cc21)OCCO3` (stereo unspecified) it is > 4 mM (inactive). Consider `COC(=O)[C@@H]1OC(=O)[C@H]2O[C@@]23[C@@]1(C)CCC1[C@@]2(C)CCC(=O)C(C)(C)C2C[C@@H](OC(C)=O)[C@]13C` (stereo partly specified), for which the Kd was > 4 mM (inactive). Consider `Cc1ccc(S(=O)(=O)CCc2ccccn2)cc1`, for which the Kd was > 4 mM (inactive). Take `COc1cc(OC)c(OC)cc1C=O`: the Kd was > 4 mM (inactive).

As for `Cc1nc(-c2cccc(C(=O)O)c2)cs1`, the Kd was > 4 mM (inactive). The figure for `O=C(O)c1ccc(CN2CCOCC2)cc1` is > 4 mM (inactive); for `CCN1CCc2c(sc(N)c2C(N)=O)C1` it is > 4 mM (inactive); for `CSc1nsc(SCc2cnc(C)nc2N)n1` it is > 4 mM (inactive).

For `Cc1cc(C)n(-c2nc(N)cc(=O)[nH]2)n1`, the Kd is > 4 mM (inactive).

As for `Cc1noc(C)c1C(=O)N1CCc2ccccc21`, the Kd is > 4 mM (inactive). As for `Cc1cc(O)c2c(c1)C(=O)c1cccc(O)c1C2=O`, the figure is > 4 mM (inactive); as for `NC(=S)N1CCC(c2ccccc2)=N1`, > 4 mM (inactive); as for `O=C(OCc1c(F)cccc1Cl)c1cnccn1`, > 4 mM (inactive). For `OC[C@H]1O[C@@H](O[C@H]2[C@H](O)[C@@H](O)[C@@H](O)O[C@@H]2CO)[C@H](O)[C@@H](O)[C@@H]1O`, the Kd was > 4 mM (inactive). The figure for `CC(=O)O[C@@H]1CC2C(C)(C)[C@H](O)C[C@H](O)[C@]2(C)C2CC[C@@]3(C)C(=CC(=O)O[C@H]3c3ccoc3)[C@@]21C` (stereo partly specified) is > 4 mM (inactive). The figure for `CC(=O)c1cccc(N=C2NC(=O)CS2)c1` is > 4 mM (inactive).

With `O=c1[nH]cc(CN2CCOCC2)c(=O)[nH]1`, the Kd is > 4 mM (inactive). The figure for `Cn1c(O)c(/C=C2\C=CC=N2)c(=O)[nH]c1=S` is > 4 mM (inactive); for `O=C(O)C1CCCN1Cc1c[nH]c2ccccc12` (stereo unspecified) it is > 4 mM (inactive).

In the case of `CC(=O)NCc1nc2ccccc2[nH]1`, the Kd was > 4 mM (inactive). The figure for `Cc1ccc2nc(SCCC#N)nc(C)c2c1` is > 4 mM (inactive); for `O=C1NC(=O)C(Cc2cccs2)C(=O)N1` it is > 4 mM (inactive). Turning to `CCOC(=O)c1c(C)nc2ccccn12`, the Kd was > 4 mM (inactive). For the compound `CSc1nnc2c(n1)OC(C)=Nc1ccccc1-2`, the Kd was > 4 mM (inactive).

Regarding `CCn1cnc2scc(-c3ccccc3)c2c1=O`, the Kd is > 4 mM (inactive).

Regarding `Cn1nc(C(=O)N2CCCC2)c2ccccc2c1=O`, the Kd is > 4 mM (inactive). As for `Nc1c(N2CCCC2)cnn(-c2ccccc2)c1=O`, the figure is > 4 mM (inactive); as for `CN1C2CC(OC(=O)[C@H](CO)c3ccccc3)C[C@H]1[C@H]1OC21` (stereo partly specified), > 4 mM (inactive).

With `O=C1c2ccccc2-c2ncnc3cccc1c23`, the Kd was > 4 mM (inactive). Regarding `COc1ccc(NC(=O)C2CC(=O)N=C(N)S2)cc1` (stereo unspecified), the Kd is > 4 mM (inactive). The figure for `CC1=NN(C(N)=S)C(C)(C)C1` is > 4 mM (inactive); for `CC(=O)OC1CCC23C(=O)OC45CCC(C6=CC(=O)OC6)C4(C)CCC2C5CCC3(O)C1` (stereo unspecified) it is > 4 mM (inactive). Consider `O=C(c1ccco1)N1CCN(Cc2cccc(F)c2)CC1`, for which the Kd was > 4 mM (inactive).

In the case of `Cc1ccc(NC(=O)CN2C(=O)CSC2=O)cc1`, the Kd was > 4 mM (inactive). The figure for `COc1ccc2c(CC(=O)O)coc2c1` is > 4 mM (inactive); for `CCNC(=S)Nc1c(C)n(C)n(-c2ccccc2)c1=O` it is > 4 mM (inactive); for `OCC1CNc2ccccc2O1` (stereo unspecified) it is > 4 mM (inactive). The figure for `O=C1CSC(=O)N1c1cccc(O)c1` is > 4 mM (inactive); for `O=C(CC1NC(=O)NC1=O)Nc1ccccc1` (stereo unspecified) it is > 4 mM (inactive); for `O=C(c1cccc(C(F)(F)F)c1)N1CCCC1` it is > 4 mM (inactive). The figure for `COc1ccc(CN2CCNC(=O)C2CC(=O)O)cc1C` (stereo unspecified) is > 4 mM (inactive); for `O=C(O)CNC(=O)c1ccccc1` it is > 4 mM (inactive).

For the compound `O=C(Nc1nncs1)c1c(F)cccc1F`, the Kd is > 4 mM (inactive).

The values above are taken from PubChem BioAssay AID1552 (Sanford-Burnham Center for Chemical Genomics, 2009).
